The test has as its system Human Platelet Aggregation. Put plainly: in vitro human platelet aggregation using PRP (collagen-induced, light transmittance). The class given is cell-based. The following applies: aggregation induced with collagen (final concentration: 5 µ g/ml), 37°C. The text has this: (Measurement of in vitro Human Platelet Aggregation using PRP)
Healthy male volunteers who had not taken any medicines for at least two weeks were selected as subjects. Blood was collected from the forearm vein of each subject on an empty stomach using a #19 needle and a plastic syringe preliminarily charged with 1/10 volume of a 3.8% sodium citrate solution. Immediately after the blood collection, the syringe was shaken gently to mix the blood with the sodium citrate solution. The mixed blood was centrifuged (1100 rpm, 250 g) at room temperature for 15 minutes and the rotation was stopped without applying the brake. Then, the supernatant was collected with a Komagome type pipette to obtain platelet-rich plasma (PRP). The PRP was stored at room temperature. The blood remaining after centrifuging was further centrifuged (3500 rpm, 1500 g) at room temperature for 15 minutes and the rotation was stopped without applying the brake. The supernatant was collected to obtain platelet-poor plasma (PPP). After the preparation of the PRP, the number of platelets was counted and only samples containing more than 2 x 10^8 of platelets per milliliter were subjected to the following experiments.
Platelet aggregation was measured using an 8-channel platelet aggregation measuring instrument (Hematracer, Nikoh Bioscience, Tokyo, Japan) on the basis of the change in light transmittance through the PRP. First, the PPP and PRP (each 200µl) were placed in glass cuvettes and incubated at 37°C . Thereafter, the transmittance was measured. The transmittance of the PPP was determined as 100% and that of the PRP as 0%. Then, 10µl of physiological saline or a sample-containing physiological saline was added to the PRP and incubated at 37°C for one minute. A collagen solution (10 µ l) at a concentration of […] was added (final concentration: 5 µ g/ml) to induce aggregation and thereafter the transmittance was measured over 7 minutes. After aggregation with collagen and ADP was confirmed, only those samples in which the maximum aggregation with collagen was at least 70% were subjected to the experiment.
The sample was dissolved in physiological saline to give a concentration of 2.2 x 10 ^-2 M and a 2-fold dilution series was prepared for use in the experiments. The samples insoluble in the physiological saline were dissolved in physiological saline containing 10% DMSO (dimethyl sulfoxide).
The results were calculated as follows: [formula]
A graph was constructed by plotting the percent aggregation inhibition against the sample concentration and the concentration at which the aggregation was inhibited by 50% (IC50) was calculated from the graph.
`CC(C)(C(=O)N1CCC(CC(=O)O)CC1)C(NC(=O)c1ccc(C(=N)N)cc1Cl)c1ccccc1` (stereo not drawn) [Example 34, N-(N-4-amidino-2-chlorobenzoyl-β-phenyl-α, α-dimethyl-β-alanyl)-4-piperidineacetic acid]: the IC50 was 360 nM.

The compound `CN(C)c1ccc(C(NC(=O)c2ccc(C(=N)N)cc2)C(C)(C)C(=O)N2CCC(CC(=O)O)CC2)cc1` (stereo not drawn) [Example 31, N-(N-4-amidinobenzoyl-β-p-N,N-dimethylaminophenyl-α, α-dimethyl-β-alanyl)-4-piperidineacetic acid] gave an IC50 of 470 nM. On to `CC(C)(C(=O)N1CCC(CC(=O)O)CC1)C(NC(=O)c1ccc(C(=N)N)cc1)C1CCNCC1` (stereo not drawn) [Example 15, N-(N-4-amidinobenzoyl-β-(4-piperidyl)-α, α-dimethyl-β-alanyl)-4-piperidineacetic acid], for which the IC50 worked out at 180 nM. Regarding `CC(C)(C(=O)N1CCC(CC(=O)O)CC1)C(CCc1cccc(O)c1)NC(=O)c1ccc(C(=N)N)cc1` (stereo not drawn) [Example 37, N-(N-4-amidinobenzoyl-β-m-hydroxyphenethyl-α, α-dimethyl-β-alanyl)-4-piperidineacetic acid], the IC50 is 190 nM.

With `CCC(C(=O)N1CCC(CC(=O)O)CC1)C(/C=C/c1ccccc1)NC(=O)c1ccc(C(=N)N)cc1` (stereo not drawn) [Comparative Example 6, N-(N-4-amidinobenzoyl-β-trans-styryl-α-ethyl-β-alanyl)-4-piperidineacetic acid, reference compound], the IC50 came out at 85000 nM. `CC(NC(=O)c1ccc(C(=N)N)cc1F)C(C)(C)C(=O)N1CCC(CC(=O)O)CC1` (stereo not drawn) [Example 40, N-(N-4-amidino-2-fluorobenzoyl-β-methyl-α, α-dimethyl-β-alanyl)-4-piperidineacetic acid] had an IC50 of 75 nM.

The compound `N=C(N)c1ccc(C(=O)NC(CC(=O)N2CCC(CC(=O)O)CC2)c2ccccc2)cc1` (stereo not drawn) [Comparative Example 3, N-(N-4-amidinobenzoyl-β-phenyl-β -alanyl)-4-piperidineacetic acid, reference compound] yielded an IC50 of 5200 nM. `CC(C)(C(=O)N1CCC(CC(=O)O)CC1)C(NC(=O)c1ccc(C(=N)N)cc1)c1cccc(O)c1` (stereo not drawn) [Example 28, N-(N-4-amidinobenzoyl-β-m-hydroxyphenyl-α, α-dimethyl-β-alanyl)-4-piperidineacetic acid] came in with an IC50 of 76 nM. `CC(C)(C(=O)N1CCC(CC(=O)O)CC1)C(NC(=O)c1ccc(C(=N)N)cc1)c1ccccc1` (stereo not drawn) [Example 2, N-(N-4-amidinobenzoyl-β-phenyl-α,α-dimethyl-β-alanyl)-4-piperidineacetic acid]: the IC50 stood at 190 nM. The same measure for `CCC(NC(=O)c1ccc(C(=N)N)cc1F)C(C)(C)C(=O)N1CCC(CC(=O)O)CC1` (stereo not drawn) [Example 39, N-(N-4-amidino-2-fluorobenzoyl-β-ethyl-α, α-dimethyl-β-alanyl)-4-piperidineacetic acid]: 61 nM; for `CC(C)(CNC(=O)c1ccc(C(=N)N)cc1)C(=O)N1CCC(CC(=O)O)CC1` [Example 1, N-(N-4-amidinobenzoyl-α,α-dimethyl-β-alanyl)-4-piperidineacetic acid]: 570 nM. The compound `CC(C)(C(=O)N1CCC(CC(=O)O)CC1)C(C=Cc1ccccc1)NC(=O)c1ccc(C(=N)N)cc1` (stereo not drawn) [Example 14, N-(N-4-amidinobenzoyl-β-styryl-α,α-dimethyl-β-alanyl)-4-piperidineacetic acid] registered an IC50 of 460 nM. As to `CCC(NC(=O)c1ccc(C(=N)N)cc1)C(C)(C)C(=O)N1CCC(CC(=O)O)CC1` (stereo not drawn) [Example 3, N-(N-4-Amidinobenzoyl-β-ethyl-α,α-dimethyl-β-alanyl)-4-piperidineacetic acid], half-maximal inhibition (IC50) was put at 84 nM.

Compound `CC(C)(C(=O)N1CCC(CC(=O)O)CC1)C(NC(=O)c1ccc(C(=N)N)cc1)C1CC1` (centres unmarked) [Example 17] showed an IC50 of 180 nM. `CCCC(NC(=O)c1ccc(C(=N)N)cc1)C(C)(C)C(=O)N1CCC(CC(=O)O)CC1` (stereo not drawn) [Example 4, N-(N-4-amidinobenzoyl-β-n-propyl-α,α-dimethyl-β-alanyl)-4-piperidineacetic acid]: half-maximal inhibition (IC50) required 89 nM.

`CC(C)CC(NC(=O)c1ccc(C(=N)N)cc1)C(C)(C)C(=O)N1CCC(CC(=O)O)CC1` (stereo not drawn) [Example 24, N-(N-4-amidinobenzoyl-β-i-butyl-α,α-dimethyl-β-alanyl)-4-piperidineacetic acid]: half-maximal inhibition (IC50) required 80 nM.

Compound `CCC(C(=O)N1CCC(CC(=O)O)CC1)C(NC(=O)c1ccc(C(=N)N)cc1)c1ccccc1` (stereo not drawn) [Comparative Example 5, N-(N-4-amidinobenzoyl-β-phenyl-α -ethyl-β-alanyl)-4-piperidineacetic acid, reference compound] showed an IC50 of 16000 nM. `CCCCc1ccc(C(NC(=O)c2ccc(C(=N)N)cc2)C(C)(C)C(=O)N2CCC(CC(=O)O)CC2)cc1` (stereo not drawn) [Example 32, N-(N-4-amidinobenzoyl-β-p-n-butylphenyl-α, α-dimethyl-β-alanyl)-4-piperidineacetic acid]: 150 nM corresponded to half-maximal inhibition (IC50). The same measure for `C#CC(NC(=O)c1ccc(C(=N)N)cc1)C(C)(C)C(=O)N1CCC(CC(=O)O)CC1` (stereo not drawn) [Example 38, N-(N-4-amidinobenzoyl-β-ethynyl-α,α-dimethyl-β-alanyl)-4-piperidineacetic acid]: 150 nM; for `CC(C)(C(=O)N1CCN(CC(=O)O)CC1)C(NC(=O)c1ccc(C(=N)N)cc1)c1ccccc1` (stereo not drawn) [Example 23, N-(N-4-amidinobenzoyl-β-phenyl-α,α-dimethyl-β-alanyl)-4-piperazineacetic acid]: 620 nM; for `CC(C)(C(=O)N1CCC(CC(=O)O)CC1)C(CC1CCCCC1)NC(=O)c1ccc(C(=N)N)cc1` (stereo not drawn) [Example 12, N-(N-4-amidinobenzoyl-β-cyclohexylmethyl-α, α-dimethyl-β-alanyl)-4-piperidineacetic acid]: 170 nM. `CCCCC(NC(=O)c1ccc(C(=N)N)cc1)C1(C(=O)N2CCC(CC(=O)O)CC2)CCCCC1` (centres unmarked) [Example 30, N-(((N-4-amidinobenzoyl)-1-amino)-1-pentyl-1-cyclohexane-carbonyl)-4-piperidineacetic acid]: it took 160 nM to reach half-maximal inhibition (IC50). The same measure for `CC(C)(C(=O)N1CCC(CC(=O)O)CC1)C(CCc1ccccc1)NC(=O)c1ccc(C(=N)N)cc1` (stereo not drawn) [Example 11, N-(N-4-amidinobenzoyl-β-phenethyl-α,α-dimethyl-β-alanyl)-4-piperidineacetic acid]: 160 nM; for `CC(C(=O)N1CCC(CC(=O)O)CC1)C(NC(=O)c1ccc(C(=N)N)cc1)c1ccccc1` (stereo not drawn) [Comparative Example 10, N-(N-4-amidinobenzoyl-β-phenyl-α-methyl-β-alanyl)-4-piperidineacetic acid, reference compound]: 16000 nM; for `CC(C)(C(=O)N1CCC(CC(=O)O)CC1)C(NC(=O)c1ccc(C(=N)N)cc1)c1ccc(F)cc1` (stereo not drawn) [Example 10, N-(N-4-amidinobenzoyl-β-p-fluorophenyl-α, α-dimethyl-β-alanyl)-4-piperidineacetic acid]: 230 nM. For the compound `CC(C)(C(=O)N1CCC(CC(=O)O)CC1)C(NC(=O)c1ccc(C(=N)N)cc1)c1ccoc1` (stereo not drawn) [Example 13, N-(N-4-amidinobenzoyl-β-(3-furyl)-α,α-dimethyl-β-alanyl)-4-piperidineacetic acid], the IC50 was found to be 270 nM.

Usually IC50 stands for the concentration at which inhibition is half-maximal. Read a high IC50 as weaker potency in that assay.

Values taken from patent EP0800516B1, “FIBRINOGEN RECEPTOR ANTAGONISTS HAVING SUBSTITUTED (b)-AMINO ACID RESIDUES AND PHARMACEUTICAL COMPOSITIONS COMPRISING THE SAME” (Nippon Steel Corporation, priority 1994, dated 1996).
